This is an account of results in PubChem BioAssay (NCI).

What all share (assay): NCI tumour cell line growth inhibition, 48 h
In assay [1] the test system is A549 NSCLC.
Assay [2] concerns CCRF-CEM leukemia.
Assay [3] relates to HOP-92 NSCLC.
Assay [4] deals with HS 578T breast.
Assay [5] deals with MOLT-4 leukemia.
Assay [6] concerns PC-3 prostate.
For assay [7], the system named is SN12C renal.
Assay [8] deals with T-47D breast.
The subject of assay [9] is UACC-257 melanoma.
The subject of assay [10] is UACC-62 melanoma.

Each structure is given as a SMILES string. Values joined by “and” are separate entries in the source; they are usually repeats but may differ in a detail not shown here. Identical values can stand only once.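 Cultured in 96-well plates, cells were exposed to test compound for 48 hours across five concentrations. Here, GI50 denotes the concentration required for 50% inhibition of growth. TGI marks complete inhibition of growth.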

For the compound `COc1ncnn2ccc(-c3cnc4nc(C)n(Cc5nnc(C(C)F)o5)c4c3)c12` (centres undefined), the GI50 was 0.136 µM in assay [1]; 0.11 µM in [2]; 204 nM in assay [3]; 0.265 µM in assay [4]; 0.231 µM in assay [5]; 0.281 µM in assay [6]. Besides, the GI50 in assay [7] was 0.255 µM; in assay [8] it was 0.0853 µM; in [9], 0.265 µM. Further, the TGI in assay [1] is more than 100 µM; in assay [2] it was more than 74.6 µM; in assay [3] it was 2 µM; in assay [4], 7.21 µM; in assay [5], more than 20.8 µM; in assay [6], more than 100 µM. Moreover, the TGI in assay [7] was more than 58.1 µM; in assay [8] it was more than 100 µM; in assay [9] it was more than 100 µM.
Consider `COc1cccc(Nc2ncnn3ccc(CN4CC[C@@H](N)[C@H](O)C4)c23)c1`, for which the GI50 was 2.22 µM and 0.928 µM in assay [1]; 25.2 µM and > 4.58 µM in assay [2]; 125 nM and 194 nM in [3]; 0.698 µM and 0.395 µM in assay [4]; 5.68 µM and 2.26 µM in assay [5]; 15.2 µM and > 2.39 µM in [6]. For the same compound, the GI50 in assay [7] is 0.265 µM and 0.304 µM; in [9], 17.5 µM and > 5.79 µM; in assay [10] it was 20.4 µM and > 3.85 µM. Further, the TGI was 23.6 µM and > 7.05 µM in assay [1]; more than 100 µM in assay [2]; 5.21 µM and > 6.86 µM in [3]; 5.18 µM and 2.69 µM in assay [4]; 33.2 µM and > 10 µM in assay [5]; more than 100 µM in assay [6]. The TGI in [7] is 18.5 µM and > 10 µM; in [8], 29.2 µM and > 6.86 µM; in [9], 34 µM and > 10 µM; in [10] it was 41.3 µM and > 9.23 µM.
`COc1ccc2c(c1)OC(N)=C(C#N)C2c1ccc(F)c(F)c1` (centres undefined): the GI50 in assay [1] is 0.706 µM; in assay [2] it was 0.409 µM; in assay [3] it was 6530 nM; in assay [4] it was 0.426 µM; in assay [5], 0.55 µM; in assay [6], 0.569 µM. Besides, the GI50 in [7] is 0.718 µM; in assay [8] it was 0.334 µM; in assay [9], 0.408 µM; in assay [10], 0.418 µM. Besides, the TGI in assay [1] is more than 100 µM; in [2], more than 100 µM; in [3], 69.3 µM; in assay [4] it was more than 46.3 µM; in [5], more than 100 µM; in assay [6], more than 100 µM. Also, the TGI is more than 70.6 µM in [7], more than 55.3 µM in [8], more than 100 µM in assay [9] and more than 100 µM in [10].
As to `Clc1ccc(Nc2ncnc3ccccc23)cc1`, the GI50 was 47.6 µM in assay [1]; 48.8 µM in [2]; 13800 nM in [3]; 37.9 µM in [4]; 20.6 µM in assay [5]; 47 µM in assay [6]. The GI50 in [7] was 23 µM; in [8], 80 µM; in assay [9], 49.9 µM; in [10], 78 µM. Besides, the TGI in assay [1] was more than 100 µM; in [2] it was more than 100 µM; in assay [3], 73.2 µM; in [4], more than 100 µM; in assay [5], 59.5 µM; in assay [6], more than 100 µM. In addition, the TGI is 73.1 µM in assay [7], more than 100 µM in assay [8], more than 100 µM in assay [9] and more than 100 µM in assay [10].
On to `N#CC1(C#N)C2C=CC(C3CC=CC32)C1(C#N)C#N` (centres undefined), for which the TGI in assay [1] was 21 µM; in assay [2] it was 3.43 µM; in assay [3], 14.8 µM; in [4], more than 50 µM; in [5], 3.5 µM and 3.55 µM; in assay [6] it was 16.2 µM. In addition, the TGI was 18.4 µM in [7]; 8.65 µM and 13.2 µM in assay [8]; 21 µM in [9]; 16.9 µM in [10]. Also, the results for the GI50 in assay [5] and in [8] were 1.2 µM and 2.78 µM, respectively.
With `COc1c(O)cc2c(c1CC=C(C)C)OC(=O)c1c(cc(O)c(CC=C(C)C)c1O)O2`, the GI50 is 4.26 µM in [1]; 7.63 µM in assay [2]; 4080 nM in [3]; 2.96 µM in assay [4]; 4.1 µM in assay [5]; 4.87 µM in [6]. For the same compound, the GI50 is 3.67 µM in assay [7], 4.48 µM in assay [8], 4.06 µM in [9] and 3.74 µM in assay [10]. Further, the TGI in assay [1] amounted to 8.28 µM; in assay [2], 25 µM; in assay [3], 7.78 µM; in [4], 7.4 µM; in assay [5], 12.7 µM; in [6], 9.7 µM. The TGI was 7.37 µM in assay [7], 8.72 µM in [8], 7.67 µM in [9] and 7.48 µM in assay [10].
Consider `O=C(/C=C/c1cccnc1)c1ccccc1`, for which the GI50 in [1] is 17.2 µM; in assay [2], 3.2 µM; in assay [3] it was 4620 nM; in assay [4], 10.5 µM; in [5], 4.32 µM; in [6] it was 11 µM. Also, the GI50 is 12.2 µM in assay [7], 12.4 µM in assay [8], 10.4 µM in assay [9] and 5.14 µM in assay [10]. Besides, the TGI in [1] worked out at 34.2 µM; in [2] it was 9.91 µM; in assay [3] it was 19.2 µM; in assay [4] it was 32.7 µM; in assay [5], 20.2 µM; in assay [6], 26.5 µM. The TGI in [7] is 25.9 µM; in assay [8], 28.6 µM; in assay [9] it was 22.7 µM; in [10], 19.2 µM.
`CC[C@@]1(O)C(=O)OCc2c1cc1n(c2=O)Cc2cc3c(OC)cccc3nc2-1`: the TGI is 7.59 µM in [1]; 0.685 µM in [3]; more than 100 µM in assay [4]; more than 100 µM in assay [6]; 3.4 µM in [7]; more than 100 µM in [8]. Also, the TGI in assay [9] is 4.25 µM; in [10] it was 0.0456 µM and 0.106 µM. For the same compound, the GI50 was 0.00022 µM in assay [2]; 0.0599 nM in assay [3]; 0.000417 µM in assay [5]; 0.00326 µM in assay [7]; more than 100 µM in assay [8]; 0.0646 µM in assay [9]. For the same compound, the GI50 in assay [10] was 0.00262 µM.
